{
  "source": "patent EP4818154A1",
  "about": "“EP4 AGONIST” (ONO Pharmaceutical Co., Ltd., priority 2023, dated 2025)",
  "key": {"[1]": {"tested_on": "rat circulatory organ (blood pressure and heart rate)", "experiment": "Rat po circulatory organ evaluation test (blood pressure and heart rate)", "conditions": "for safety margin (dose basis): rat no observed effect level compared with the effective amount in the mouse model of DSS-induced colitis; for no observed effect level on the rat circulatory organ (blood pressure and heart rate): single oral administration, unrestrained, awake rats", "description": "Regarding an action on the rat circulatory organ under unrestrained conditions and awakening, the test substance was orally administered once to Crl:CD (SD) male rats (4 animals/group) implanted with a telemetry transmitter (HD-S10, Data Sciences International, Inc.) or catheterized in the left carotid artery, and blood pressure (systolic, diastolic, and mean blood pressure) and heart rate were continuously measured."}, "[2]": {"tested_on": "monkey circulatory organ (blood pressure and heart rate)", "experiment": "Monkey po telemetry test (blood pressure and heart rate)", "conditions": "for safety margin (dose basis): monkey no observed effect level compared with the effective amount in the mouse model of DSS-induced colitis; for no observed effect level on the monkey circulatory organ (blood pressure and heart rate): single oral administration, unrestrained, awake cynomolgus monkeys", "quoted_text": "Regarding an action on the monkey circulatory organ under unrestrained conditions and awakening, the test substance was orally administered once to male cynomolgus monkeys (2 animals/dose) implanted with a telemetry transmitter (M11, Data Sciences International, Inc.), and blood pressure (systolic, diastolic, and mean blood pressure) and heart rate were continuously measured. The evaluation time point was set to before administration, 0.5, 1, 2, 4, 8, 10, 12, 16, or 24 hours after administration, and the average value for 1 minute at the evaluation time point was analyzed."}, "[3]": {"tested_on": "DSS colitis mouse model", "experiment": "Dextran sodium sulfate (DSS)-induced ulcerative colitis mouse model", "format": "in vivo, C57BL/6 mice", "conditions": "oral once a day Day 0 to Day 6, 2% DSS drinking water", "protocol": "Adult C57BL/6 mice were used in this assay. The day on which 2% DSS drinking water started was defined as Day 0. A DSS solution was placed in a transparent plastic water bottle, and the mice were allowed to freely drink from Day 0 to Day 7 via a metal nozzle to induce ulcerative colitis. The test substance was orally administered once a day at a dose of 10 mL/kg for 7 days from Day 0 to Day 6. Stool conditions were observed every day from Day 0 to Day 7, and a disease activity index (DAI) was evaluated according to a reference score (Diarrhea score 0: normal stool, 1: loose stool, 2: diarrhea stool, 3: watery stool. Bloody stool score 0: normal stool, 1: brown mild bloody stool, 2: reddish color in stool, 3: melena); DAI score = diarrhea score + bloody stool score […].\nThe compounds of the present disclosure were tested in this assay. Efficacy in this model is evidenced by a decrease in the DAI score when compared to that of vehicle-treated animals (control group)."}},
  "data": [
    {"smiles": "CN(CCCCC[C@H](O)/C=C/[C@H]1CCC(=O)N1CCSc1nc(C(=O)NCCS(=O)(=O)O)cs1)c1ccccc1", "note": "[2-({[2-({2-[(2R)-2-{(1E,3S)-3-Hydroxy-8-[methyl(phenyl)amino]-1-octen-1-yl}-5-oxo-1-pyrrolidinyl]ethyl}thio)-1,3-thiazol-4-yl]carbonyl}amino)ethanesulfonic acid]", "values": [
      {"measurement": "safety margin (dose basis)", "setting": "[1]", "result": 100, "unit": "times"},
      {"measurement": "no observed effect level on the rat circulatory organ (blood pressure and heart rate)", "setting": "[1]", "result": 30, "unit": "mg/kg"},
      {"measurement": "safety margin (dose basis)", "setting": "[2]", "result": 10, "unit": "times"},
      {"measurement": "no observed effect level on the monkey circulatory organ (blood pressure and heart rate)", "setting": "[2]", "result": 3, "unit": "mg/kg"},
      {"measurement": "suppression of the control group score (DAI score)", "setting": "[3]; 0.3 mpk", "result": 50, "unit": "%"}
    ]},
    {"smiles": "O=C(CCCSCCN1C(=O)CC[C@@H]1/C=C/[C@@H](O)Cc1cccc(NC(=O)c2ccccc2)c1)NCCS(=O)(=O)O", "note": "[2-{[4-({2-[(2R)-2-{(1E,3S)-4-[3-(Benzoylamino)phenyl]-3-hydroxy-1-buten-1-yl}-5-oxo-1-pyrrolidinyl]ethyl}thio)butanoyl]amino}ethanesulfonic acid]", "values": [
      {"measurement": "safety margin (dose basis)", "setting": "[1]", "result": 10, "unit": "times"},
      {"measurement": "no observed effect level on the rat circulatory organ (blood pressure and heart rate)", "setting": "[1]", "result": 30, "unit": "mg/kg"},
      {"measurement": "suppression of the control group score (DAI score)", "setting": "[3]; 3 mpk", "result": 50, "unit": "%"}
    ]},
    {"smiles": "O=C(O)c1csc(SCCN2C(=O)CC[C@@H]2/C=C/[C@@H](O)CCCCCSc2ccccn2)n1", "note": "[Example 1, 2-[(2-{(2R)-2-[(1E,3S)-3-Hydroxy-8-(2-pyridinylthio)-1-octen-1-yl]-5-oxo-1-pyrrolidinyl}ethyl)thio]-1,3-thiazole-4-carboxylic acid]", "values": [
      {"measurement": "suppression of the control group score (DAI score)", "setting": "[3]; 0.3 mpk", "result": 50, "unit": "%"}
    ]},
    {"smiles": "CN(CCCCC[C@H](O)/C=C/[C@H]1CCC(=O)N1CCSc1nc(C(=O)O)cs1)c1ccccc1", "note": "[Example 2, 2-({2-[(2R)-2-{(1E,3S)-3-Hydroxy-8-[methyl(phenyl)amino]-1-octen-1-yl}-5-oxo-1-pyrrolidinyl]ethyl}thio)-1,3-thiazole-4-carboxylic acid]", "values": [
      {"measurement": "suppression of the control group score (DAI score)", "setting": "[3]; 0.3 mpk", "result": 50, "unit": "%"}
    ]},
    {"smiles": "O=C(O)CCCSCCN1C(=O)CC[C@@H]1/C=C/[C@@H](O)Cc1cccc(NC(=O)c2ccccc2)c1", "note": "[Example 10, 4-({2-[(2R)-2-{(1E,3S)-4-[3-(Benzoylamino)phenyl]-3-hydroxy-1-buten-1-yl}-5-oxo-1-pyrrolidinyl]ethyl}thio)butanoic acid]", "values": [
      {"measurement": "suppression of the control group score (DAI score)", "setting": "[3]; 1 mpk", "result": 50, "unit": "%"}
    ]},
    {"smiles": "O=C(NCCS(=O)(=O)O)c1csc(SCCN2C(=O)CC[C@@H]2/C=C/[C@@H](O)CCCCCSc2ccccn2)n1", "note": "[Example 11, 2-[({2-[(2-{(2R)-2-[(1E,3S)-3-Hydroxy-8-(2-pyridinylthio)-1-octen-1-yl]-5-oxo-1-pyrrolidinyl}ethyl)thio]-1,3-thiazol-4-yl}carbonyl)amino]ethanesulfonic acid]", "values": [
      {"measurement": "safety margin (dose basis)", "setting": "[1]", "result": 100, "unit": "times"},
      {"measurement": "no observed effect level on the rat circulatory organ (blood pressure and heart rate)", "setting": "[1]", "result": 30, "unit": "mg/kg"},
      {"measurement": "safety margin (dose basis)", "setting": "[2]", "result": 1, "unit": "times"},
      {"measurement": "no observed effect level on the monkey circulatory organ (blood pressure and heart rate)", "setting": "[2]", "result": 0.3, "unit": "mg/kg"},
      {"measurement": "suppression of the control group score (DAI score)", "setting": "[3]; 0.3 mpk", "result": 50, "unit": "%"}
    ]},
    {"smiles": "COc1nccnc1SCCCCC[C@H](O)/C=C/[C@H]1CCC(=O)N1CCSc1nc(C(=O)NCCS(=O)(=O)O)cs1", "note": "[Example 12]", "values": [
      {"measurement": "safety margin (dose basis)", "setting": "[1]", "result": 10, "unit": "times"},
      {"measurement": "no observed effect level on the rat circulatory organ (blood pressure and heart rate)", "setting": "[1]", "result": 30, "unit": "mg/kg"},
      {"measurement": "safety margin (dose basis)", "setting": "[2]", "result": 10, "unit": "times"},
      {"measurement": "no observed effect level on the monkey circulatory organ (blood pressure and heart rate)", "setting": "[2]", "result": 30, "unit": "mg/kg"},
      {"measurement": "suppression of the control group score (DAI score)", "setting": "[3]; 3 mpk", "result": 50, "unit": "%"}
    ]}
  ]
}
